Source: patent US20140343097A1, “5-(2-1-HYDROXYETHYL)-8-HYDROXYQUINOLIN-2(1H)-ONE FOR THE TREATMENT OF LUNG FUNCTION” (ALMIRALL, S.A., priority 2009, published 2014)

Tested on: men with mild to moderate persistent asthma (lung function, FEV1)
Assay: Clinical Phase II cross-over study: FEV1 by spirometry after single inhaled doses in asthma patients
Format: in vivo, human
Conditions: for Peak FEV1 / Peak FEV1 increase over baseline / Peak FEV1 increase over placebo / Trough FEV1 / Trough FEV1 increase over baseline / Trough FEV1 increase over placebo: average, compound single dose 25 mcg, salmeterol 50 mcg at 0 and 12 hours; for Peak FEV1: inhalation by dry powder inhaler; for Peak FEV1 increase over baseline / Peak FEV1 increase over placebo / Trough FEV1 / Trough FEV1 increase over baseline / Trough FEV1 increase over placebo: inhalation
Excerpt: Clinical Phase II study: A randomised double-blind, double-dummy, placebo and active comparator-controlled, cross-over trial assesses the activity, safety, tolerability and pharmacokinetics of single doses of 5-(2-{[6-(2,2-difluoro-2-phenylethoxy)hexyl]amino}-1-(R)-hydroxyethyl)-8-hydroxyquinolin-2(1H)-one heminapadisylate by inhalation in asthma patients.
Methods: Men with a diagnosis of mild to moderate persistent asthma, as defined by the 2006 GINA guideline, for at least 6 months prior to screening and with a FEV1 61-85% of the predicted normal values (according to Quanjer et al. 1993) were randomised to treatment sequences comprising a single-dose administration of 5-(2-{[6-(2,2-difluoro-2-phenylethoxy)hexyl]amino}-1-(R)-hydroxyethyl)-8-hydroxyquinolin-2(1H)-one heminapadisylate (at a metered nominal dose of 25 micrograms in the Cyclohaler® device), two administrations (at time points 0 and 12 hours) of Salmeterol (at a metered nominal dose of 50 micrograms in the Cyclohaler® device) and placebo administered all of them by means of a dry powder inhaler. Lung function measurements included (by spirometry) FEV1, PEF, FVC, FEF25-75, and (by body plethysmography) sGaw and Raw.
Results: 25 males (aged 18 to 70) took part in the study.

[1] = 25 micrograms single inhaled dose

SMILES	average peak and trough FEV1 compared with placebo and with salmeterol [1]	increase in average trough FEV1 compared to salmeterol (two doses) [1]	Peak FEV1	Peak FEV1 increase over baseline	Peak FEV1 increase over placebo	Trough FEV1	Trough FEV1 increase over baseline	Trough FEV1 increase over placebo	FEV1 values compared with salmeterol (single dose 25 micrograms)	bronchodilation: size, duration and onset (single dose 25 micrograms)
O=c1ccc2c([C@@H](O)CNCCCCCCOCC(F)(F)c3ccccc3)ccc(O)c2[nH]1 [5-(2-{[6-(2,2-difluoro-2-phenylethoxy)hexyl]amino}-1-(R)-hydroxyethyl)-8-hydroxyquinolin-2(1H)-one]	clearly increased	statistically significant	3.819 L	843 mL	618 mL	3.642 L	666 mL	718 mL	significantly higher than those produced by salmeterol	surprisingly large, long-lasting bronchodilation, with a fast onset
OCc1cc(C(O)CNCCCCCCOCCCCc2ccccc2)ccc1O (stereo not shown) [Salmeterol, 2-(hydroxymethyl)-4-{1-hydroxy-2-[6-(4-phenylbutoxy)hexylamino]ethyl}phenol, reference compound]	–	–	3.521 L	667 mL	442 mL	3.209 L	355 mL	285 mL	–	–
